Measurements taken from ChEMBL document CHEMBL4184120, “Target ROS to induce apoptosis and cell cycle arrest by 5,7-dimethoxy-1,4-naphthoquinone derivative” (Bioorg Med Chem Lett, 2018).
pIC50: −log10 of the molar value. Active and inactive are the calls of the source. No cut-off for these calls is given here.

Assays:
HL-60 [1] = test: Antiproliferative activity against human HL60 cells after 48 hrs by MTT assay; assay type: functional, cell-based; conditions: HL-60, 48 h
A549 = test: Antiproliferative activity against human A549 cells after 48 hrs by MTT assay; assay type: functional, cell-based; conditions: A549, 48 h
NCI-H460 = test: Antiproliferative activity against human NCI-H460 cells after 48 by hrs MTT assay; assay type: functional, cell-based
HeLa = test: Antiproliferative activity against human HeLa cells after 48 hrs by MTT assay; assay type: functional, cell-based
HepG2 = test: Antiproliferative activity against human HepG2 cells after 48 hrs by MTT assay; assay type: functional, cell-based; conditions: HepG2, 48 h
[2] = Redox potential of the compound in pH 7.4 PBS buffer assessed as oxidation potential at 0.4 mM by cyclic voltametry; assay type: physicochemical; conditions: pH 7.4, 400 µM
[3] = Redox potential of the compound in pH 7.4 PBS buffer assessed as half wave potential at 0.4 mM by cyclic voltametry; assay type: physicochemical; conditions: pH 7.4, 400 µM
[4] = Redox potential of the compound in pH 7.4 PBS buffer assessed as reduction potential at 0.4 mM by cyclic voltametry; assay type: physicochemical; conditions: pH 7.4, 400 µM
[5] = Selectivity index, ratio of IC50 for human WI38 cells to IC50 for human HL60 cells; assay type: toxicity; conditions: WI38 cells and HL60 cells, read-out: Ratio IC50
K562 = test: Antiproliferative activity against human K562 cells after 48 hrs by MTT assay; assay type: functional, cell-based; conditions: K562, 48 h
WI-38 = test: Antiproliferative activity against human WI38 cells after 48 hrs by MTT assay; assay type: cell-based; conditions: WI-38, 48 h
HL-60 [6] = test: Induction of apoptosis in human HL60 cells assessed as late apoptotic cells at 5 mM after 48 hrs by Annexin V-FITC/propidium iodide staining based flow cytometry (reference value: 1.23%); assay type: functional
HL-60 [7] = test: Induction of apoptosis in human HL60 cells assessed as early apoptotic cells at 5 mM after 48 hrs by Annexin V-FITC/propidium iodide staining based flow cytometry (reference value: 3.13%); assay type: functional
HL-60 [8] = test: Cell cycle arrest in human HL60 cells assessed as accumulation at S phase at 5 mM after 48 hrs by propidium iodide staining based assay (reference value: 46.44%); assay type: functional
HL-60 [9] = test: Cell cycle arrest in human HL60 cells assessed as accumulation at G2/M phase at 5 mM after 48 hrs by propidium iodide staining based assay (reference value: 2.68%); assay type: functional
HL-60 [10] = test: Cell cycle arrest in human HL60 cells assessed as accumulation at G0/G1 phase at 5 mM after 48 hrs by propidium iodide staining based assay (reference value: 50.88%); assay type: functional
[11] = Selectivity ratio of IC50 for human K562 cells to IC50 for human HL60 cells; assay type: functional
HL-60 [12] = test: Induction of apoptosis in human HL60 cells assessed as late apoptotic cells at 2 uM after 48 hrs by Annexin V-FITC/propidium iodide staining based flow cytometry (reference value: 1.23%); assay type: functional
HL-60 [13] = test: Induction of apoptosis in human HL60 cells assessed as necrotic cells after 48 hrs by Annexin V-FITC/propidium iodide staining based flow cytometry; assay type: functional, cell-based
HL-60 [14] = test: Induction of apoptosis in human HL60 cells assessed as condensed nuclei formation after 24 hrs by Hoechst-33342 staining-based fluorescence microscopic analysis; assay type: functional, cell-based
HL-60 [15] = test: Induction of apoptosis in human HL60 cells assessed as nuclear fragmentation after 24 hrs by Hoechst-33342 staining-based fluorescence microscopic analysis; assay type: functional, cell-based
HL-60 [16] = test: Induction of apoptosis in human HL60 cells assessed as nuclear fragmentation at 4 uM preincubated for 1 hr with antioxidant NAC measured after 24 hrs by Hoechst-33342 staining-based fluorescence microscopic analysis; assay type: functional, cell-based
HL-60 [17] = test: Induction of apoptosis in human HL60 cells assessed as late apoptotic cells at 1 uM after 48 hrs by Annexin V-FITC/propidium iodide staining based flow cytometry (reference value: 1.23%); assay type: functional
HL-60 [18] = test: Induction of apoptosis in human HL60 cells assessed as early apoptotic cells at 4 uM after 48 hrs by Annexin V-FITC/propidium iodide staining based flow cytometry (reference value: 3.13%); assay type: functional
HL-60 [19] = test: Cell cycle arrest in human HL60 cells assessed as accumulation at S phase at 4 uM incubated for 48 hrs starting from 1 hr post antioxidant NAC addition by propidium iodide staining based assay (reference value: 46.44%); assay type: functional
HL-60 [20] = test: Induction of apoptosis in human HL60 cells assessed as late apoptotic cells at 4 uM incubated for 48 hrs starting from 1 hr post antioxidant NAC addition by Annexin V-FITC/propidium iodide staining based flow cytometry (reference value: 1.23%); assay type: functional
HL-60 [21] = test: Induction of apoptosis in human HL60 cells assessed as condensed nuclei formation at 4 uM preincubated for 1 hr with antioxidant NAC measured after 24 hrs by Hoechst-33342 staining-based fluorescence microscopic analysis; assay type: functional, cell-based
HL-60 [22] = test: Induction of apoptosis in human HL60 cells assessed as late apoptotic cells at 4 uM after 48 hrs by Annexin V-FITC/propidium iodide staining based flow cytometry (reference value: 1.23%); assay type: functional
HL-60 [23] = test: Cell cycle arrest in human HL60 cells assessed as accumulation at G2/M phase at 4 uM after 48 hrs by propidium iodide staining based assay (reference value: 2.68%); assay type: functional
HL-60 [24] = test: Cell cycle arrest in human HL60 cells assessed as accumulation at G0/G1 phase at 2 uM after 48 hrs by propidium iodide staining based assay (reference value: 50.88%); assay type: functional
HL-60 [25] = test: Cell cycle arrest in human HL60 cells assessed as accumulation at S phase at 2 uM after 48 hrs by propidium iodide staining based assay (reference value: 46.44%); assay type: functional
HL-60 [26] = test: Induction of apoptosis in human HL60 cells assessed as late apoptotic cells after 48 hrs by Annexin V-FITC/propidium iodide staining based flow cytometry; assay type: functional, cell-based
HL-60 [27] = test: Cell cycle arrest in human HL60 cells assessed as accumulation at G2/M phase at 1 uM after 48 hrs by propidium iodide staining based assay (reference value: 2.68%); assay type: functional
HL-60 [28] = test: Cell cycle arrest in human HL60 cells assessed as accumulation at G2/M phase at 2 uM after 48 hrs by propidium iodide staining based assay (reference value: 2.68%); assay type: functional
HL-60 [29] = test: Induction of apoptosis in human HL60 cells assessed as early apoptotic cells at 1 uM after 48 hrs by Annexin V-FITC/propidium iodide staining based flow cytometry (reference value: 3.13%); assay type: functional
HL-60 [30] = test: Cell cycle arrest in human HL60 cells assessed as accumulation at G0/G1 phase at 1 uM after 48 hrs by propidium iodide staining based assay (reference value: 50.88%); assay type: functional
HL-60 [31] = test: Induction of ROS generation in human HL60 cells at 4 uM incubated for 6 hrs starting from 1 hr post antioxidant NAC addition by DCFH-DA staining-based fluorescence microscopic analysis; assay type: functional, cell-based
HL-60 [32] = test: Cell cycle arrest in human HL60 cells assessed as accumulation at S phase at 4 uM after 48 hrs by propidium iodide staining based assay (reference value: 46.44%); assay type: functional
HL-60 [33] = test: Induction of apoptosis in human HL60 cells assessed as early apoptotic cells at 2 uM after 48 hrs by Annexin V-FITC/propidium iodide staining based flow cytometry (reference value: 3.13%); assay type: functional
HL-60 [34] = test: Cell cycle arrest in human HL60 cells assessed as accumulation at G0/G1 phase at 4 uM incubated for 48 hrs starting from 1 hr post antioxidant NAC addition by propidium iodide staining based assay (reference value: 50.88%); assay type: functional
HL-60 [35] = test: Cell cycle arrest in human HL60 cells assessed as accumulation at S phase at 1 uM after 48 hrs by propidium iodide staining based assay (reference value: 46.44%); assay type: functional
HL-60 [36] = test: Induction of ROS generation in human HL60 cells after 6 hrs by DCFH-DA staining-based fluorescence microscopic analysis; assay type: functional, cell-based
HL-60 [37] = test: Cell cycle arrest in human HL60 cells assessed as accumulation at G2/M phase at 4 uM incubated for 48 hrs starting from 1 hr post antioxidant NAC addition by propidium iodide staining based assay (reference value: 2.68%); assay type: functional
HL-60 [38] = test: Cell cycle arrest in human HL60 cells assessed as accumulation at G0/G1 phase at 4 uM after 48 hrs by propidium iodide staining based assay (reference value: 50.88%); assay type: functional
HL-60 [39] = test: Induction of apoptosis in human HL60 cells assessed as early apoptotic cells after 48 hrs by Annexin V-FITC/propidium iodide staining based flow cytometry; assay type: functional, cell-based
HL-60 [40] = test: Induction of apoptosis in human HL60 cells assessed as early apoptotic cells at 4 uM incubated for 48 hrs starting from 1 hr post antioxidant NAC addition by Annexin V-FITC/propidium iodide staining based flow cytometry (reference value: 3.13%); assay type: functional

COc1ccc(CCC2=C(O)C(=O)c3cc(OC)cc(OC)c3C2=O)cc1
pIC50 (HL-60 [1]): 4.03
pIC50 (A549): 4.08
pIC50 (NCI-H460): 4.01
pIC50 (HeLa): 4.14
pIC50 (HepG2): 4.22

COc1cc(OC)c2c(c1)C(=O)C(O)=C(CCc1ccccc1)C2=O
pIC50 (HL-60 [1]): 4.02
pIC50 (A549): < 4.00
pIC50 (NCI-H460): < 4.00
pIC50 (HeLa): < 4.00
pIC50 (HepG2): 4.02

CCCCC1=C(O)C(=O)c2cc(OC)cc(OC)c2C1=O
pIC50 (HL-60 [1]): < 4.00
Activity [2]: -0.227 V
pIC50 (A549): 4.18
pIC50 (NCI-H460): < 4.00
Activity [3]: -0.278 V
pIC50 (HeLa): < 4.00
pIC50 (HepG2): 4.02
Activity [4]: -0.328 V

CCCCCCCCC1=C(O)C(=O)c2cc(OC)cc(OC)c2C1=O
pIC50 (HL-60 [1]): < 4.00
pIC50 (A549): < 4.00
pIC50 (NCI-H460): < 4.00
pIC50 (HeLa): < 4.00
pIC50 (HepG2): < 4.00

COc1cc(OC)c2c(c1)C(=O)C(O)=C(CCC1CCCCC1)C2=O
pIC50 (HL-60 [1]): 4.02
pIC50 (A549): 4.11
pIC50 (NCI-H460): 4.06
pIC50 (HeLa): 4.10
pIC50 (HepG2): 4.30

COC1=C(CCC2CCCCC2)C(=O)c2c(OC)cc(OC)cc2C1=O
pIC50 (HL-60 [1]): 4.25
pIC50 (A549): < 4.00
pIC50 (NCI-H460): 4.37
pIC50 (HeLa): 4.15
pIC50 (HepG2): 4.43

COc1cc(OC)c2c(c1)C(=O)C(O)=C(CCc1ccc(N(CCCl)CCCl)cc1)C2=O
pIC50 (HL-60 [1]): 4.58
pIC50 (A549): < 4.00
pIC50 (NCI-H460): < 4.00
pIC50 (HeLa): < 4.00
pIC50 (HepG2): 4.09

COc1ccc(CCC2=C(Cl)C(=O)c3cc(OC)cc(OC)c3C2=O)cc1
pIC50 (HL-60 [1]): 4.82
pIC50 (A549): 4.08
pIC50 (NCI-H460): < 4.00
selectivity ratio [5]: 1.8
pIC50 (HeLa): 4.53
pIC50 (HepG2): 4.43
pIC50 (K562): 4.72
pIC50 (WI-38): 4.57

CC(=O)N[C@@H](CS)C(=O)O [ACETYLCYSTEINE]
Activity (HL-60 [6]): 2.43%
Activity (HL-60 [7]): 1.56%
Activity (HL-60 [8]): 40.12%
Activity (HL-60 [9]): 2.52%
Activity (HL-60 [10]): 57.36%

CCCCCCCCCCC1=C(O)C(=O)c2cc(OC)cc(OC)c2C1=O
pIC50 (HL-60 [1]): 4.02
pIC50 (A549): < 4.00
pIC50 (NCI-H460): < 4.00
pIC50 (HeLa): < 4.00
pIC50 (HepG2): < 4.00

CCCCC1=C(Cl)C(=O)c2cc(OC)cc(OC)c2C1=O
Ratio IC50 [11]: 8
Activity (HL-60 [12]): 20.9%
Activity (HL-60 [13]): Dose-dependent effect
pIC50 (HL-60 [1]): 5.42
Activity (HL-60 [14]): Dose-dependent effect
Activity (HL-60 [15]): Dose-dependent effect
Activity (HL-60 [16]): Active
Activity [2]: -0.169 V
pIC50 (A549): 4.62
pIC50 (NCI-H460): 4.41
Activity (HL-60 [17]): 14.9%
Activity (HL-60 [18]): 26.6%
selectivity ratio [5]: 10.7
Activity (HL-60 [19]): 43.67%
Activity (HL-60 [20]): 6.78%
Activity (HL-60 [21]): Active
Activity (HL-60 [22]): 40.4%
Activity [3]: -0.202 V
Activity (HL-60 [23]): 31.93%
Activity (HL-60 [24]): 34.89%
Activity (HL-60 [25]): 47.42%
Activity (HL-60 [26]): Dose-dependent effect
Activity (HL-60 [27]): 13.15%
Activity (HL-60 [28]): 17.69%
pIC50 (HeLa): 4.65
Activity (HL-60 [29]): 4.48%
Activity (HL-60 [30]): 35.72%
Activity (HL-60 [31]): inactive
Activity (HL-60 [32]): 49.89%
Activity (HL-60 [33]): 7.35%
Activity (HL-60 [34]): 48.52%
Activity (HL-60 [35]): 51.13%
pIC50 (HepG2): 4.64
Activity (HL-60 [36]): Dose-dependent effect
Activity (HL-60 [37]): 7.8%
Activity (HL-60 [38]): 18.18%
Activity (HL-60 [39]): Dose-dependent effect
pIC50 (K562): 4.49
pIC50 (WI-38): 4.39
Activity (HL-60 [40]): 2.08%
Activity [4]: -0.235 V
